In EP1043986B1, “MIXTURE AND PHARMACEUTICAL COMPOSITION COMPRISING Z-4-HYDROXYTAMOXIFEN AND CYCLODEXTRIN” (priority 1997, dated 1999):

Experiment: 10-day stability test in water and in 96 % ethanol, room temperature, normal day light, capillary electrophoresis
Assay type: physicochemical
Settings: 10-days storage in 96 % ethanol
Method: A 10-day stability test in water and in 96 % ethanol at room temperature and exposure to normal day light, using 4-hydroxytamoxifen and the 4-hydrorytamoxifen/ γ-cyclodextrin complex prepared according to example 1 was performed. The change of E/Z isomer ratio was analyzed with capillary electrophoresis.

Substance: 1-(p-β-dimethylaminoethoxyphenyl)-1-(p-hydroxyphenyl)-2-phenylbut-1-en [4-Hydroxytamoxifen]
- Efficiency value (ratio of uncomplexed and complexed 4-hydroxytamoxifen re/z values): 4,65
- Ratio re/z (room temperature, normal day light): 0,223
